Tested on: 883617-216-R-J1-PDC tumor spheroids, viability
Assay: Anticancer human tumor 883617-216-R-J1-PDC patient-derived bladder carcinoma cell line growth inhibition [PI3K]
Conditions: spheroids with HUVEC and MSC; for IC50: curve of first compound; for viability, T/C: stronger effect = lower value
Method in brief: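 Combination activity was assessed by viability in multicellular tumor spheroids carrying HUVEC and MSC components. Agents were tested with PI3K inhibitors from a Cmax-based top dose (or 10 microM) downward in half-log increments.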

[1] = second compound 0.00316 µM, first compound 0.0316 µM
[2] = second compound 0.00316 µM, first compound 0.1 µM
[3] = second compound 0.00316 µM, first compound 0.316 µM
[4] = second compound 0.00316 µM, first compound 1 µM
[5] = second compound 0.00316 µM, first compound 3.16 µM
[6] = second compound 0.00316 µM, first compound 10 µM
[7] = second compound 0.01 µM, first compound 0.0316 µM
[8] = second compound 0.01 µM, first compound 0.1 µM
[9] = second compound 0.01 µM, first compound 0.316 µM
[10] = second compound 0.01 µM, first compound 1 µM
[11] = second compound 0.01 µM, first compound 3.16 µM
[12] = second compound 0.01 µM, first compound 10 µM
[13] = second compound 0.0316 µM, first compound 0.0316 µM
[14] = second compound 0.0316 µM, first compound 0.1 µM
[15] = second compound 0.0316 µM, first compound 0.316 µM
[16] = second compound 0.0316 µM, first compound 1 µM
[17] = second compound 0.0316 µM, first compound 3.16 µM
[18] = second compound 0.0316 µM, first compound 10 µM
[19] = second compound 0.1 µM, first compound 0.0316 µM
[20] = second compound 0.1 µM, first compound 0.1 µM
[21] = second compound 0.1 µM, first compound 0.316 µM
[22] = second compound 0.1 µM, first compound 1 µM
[23] = second compound 0.1 µM, first compound 3.16 µM
[24] = second compound 0.1 µM, first compound 10 µM
[25] = second compound 0.316 µM, first compound 0.0316 µM
[26] = second compound 0.316 µM, first compound 0.1 µM
[27] = second compound 0.316 µM, first compound 0.316 µM
[28] = second compound 0.316 µM, first compound 1 µM
[29] = second compound 0.316 µM, first compound 3.16 µM
[30] = second compound 0.316 µM, first compound 10 µM
[31] = second compound 1 µM, first compound 0.0316 µM
[32] = second compound 1 µM, first compound 0.1 µM
[33] = second compound 1 µM, first compound 0.316 µM
[34] = second compound 1 µM, first compound 1 µM
[35] = second compound 1 µM, first compound 3.16 µM
[36] = second compound 1 µM, first compound 10 µM
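Further: spheroids exposed to agents for 7 days before the viability read.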

CC(C)NCC(C(=O)N1CCN(c2ncnc3c2C(C)CC3O)CC1)c1ccc(Cl)cc1 (stereo unspecified) + CC(Nc1ccc2c(c1)OCCn1cc(N3C(=O)OCC3C(F)F)nc1-2)C(N)=O
IC50 (second compound 0.00316 µM): 453 nM | IC50 (second compound 0.01 µM): 520 nM | IC50 (second compound 0.0316 µM): 254 nM | IC50 (second compound 0.1 µM): 76.6 nM | IC50 (second compound 0.316 µM): < 31.6 nM | IC50 (second compound 1 µM): < 31.6 nM | viability, T/C [1]: 83.7% | viability, T/C [2]: 81.7% | viability, T/C [3]: 57.4% | viability, T/C [4]: 30.3% | viability, T/C [5]: 15.1% | viability, T/C [6]: 6.47% | viability, T/C [7]: 74.1% | viability, T/C [8]: 79.9% | viability, T/C [9]: 64% | viability, T/C [10]: 30.3% | viability, T/C [11]: 14.8% | viability, T/C [12]: 5.88% | viability, T/C [13]: 73.8% | viability, T/C [14]: 62% | viability, T/C [15]: 48.1% | viability, T/C [16]: 27.1% | viability, T/C [17]: 12.8% | viability, T/C [18]: 6.19% | viability, T/C [19]: 87.1% | viability, T/C [20]: 32.9% | viability, T/C [21]: 27.9% | viability, T/C [22]: 19.2% | viability, T/C [23]: 10.1% | viability, T/C [24]: 5.7% | viability, T/C [25]: 27.5% | viability, T/C [26]: 26.4% | viability, T/C [27]: 20.7% | viability, T/C [28]: 13.2% | viability, T/C [29]: 7.79% | viability, T/C [30]: 4.52% | viability, T/C [31]: 14.9% | viability, T/C [32]: 21.9% | viability, T/C [33]: 15.7% | viability, T/C [34]: 10.1% | viability, T/C [35]: 10.1% | viability, T/C [36]: 3.3%

CCN1CCN(Cc2ccc(Nc3ncc(F)c(-c4cc(F)c5nc(C)n(C(C)C)c5c4)n3)nc2)CC1 + CC(Nc1ccc2c(c1)OCCn1cc(N3C(=O)OCC3C(F)F)nc1-2)C(N)=O
IC50 (second compound 0.00316 µM): 203 nM | IC50 (second compound 0.01 µM): 166 nM | IC50 (second compound 0.0316 µM): 122 nM | IC50 (second compound 0.1 µM): < 3.16 nM | IC50 (second compound 0.316 µM): < 3.16 nM | IC50 (second compound 1 µM): < 3.16 nM | viability, T/C (second compound 0.00316 µM, first compound 0.00316 µM): 86% | viability, T/C (second compound 0.00316 µM, first compound 0.01 µM): 80.7% | viability, T/C [1]: 59.5% | viability, T/C [2]: 58.4% | viability, T/C [3]: 46.2% | viability, T/C [4]: 43.8% | viability, T/C (second compound 0.01 µM, first compound 0.00316 µM): 73.8% | viability, T/C (second compound 0.01 µM, first compound 0.01 µM): 63.2% | viability, T/C [7]: 59.4% | viability, T/C [8]: 51.1% | viability, T/C [9]: 47.1% | viability, T/C [10]: 45% | viability, T/C (second compound 0.0316 µM, first compound 0.00316 µM): 57% | viability, T/C (second compound 0.0316 µM, first compound 0.01 µM): 55.4% | viability, T/C [13]: 52.6% | viability, T/C [14]: 52.6% | viability, T/C [15]: 37.5% | viability, T/C [16]: 36.3% | viability, T/C (second compound 0.1 µM, first compound 0.00316 µM): 49.3% | viability, T/C (second compound 0.1 µM, first compound 0.01 µM): 34.4% | viability, T/C [19]: 30.7% | viability, T/C [20]: 31% | viability, T/C [21]: 30.9% | viability, T/C [22]: 24.4% | viability, T/C (second compound 0.316 µM, first compound 0.00316 µM): 26.3% | viability, T/C (second compound 0.316 µM, first compound 0.01 µM): 26.8% | viability, T/C [25]: 18% | viability, T/C [26]: 19.9% | viability, T/C [27]: 15.4% | viability, T/C [28]: 17% | viability, T/C (second compound 1 µM, first compound 0.00316 µM): 13.8% | viability, T/C (second compound 1 µM, first compound 0.01 µM): 14% | viability, T/C [31]: 11.2% | viability, T/C [32]: 11.2% | viability, T/C [33]: 11.5% | viability, T/C [34]: 11.1%

Cn1ncc(Cl)c1-c1cc(C(=O)NC(CN)Cc2cccc(F)c2)sc1Cl (stereo unspecified) + CC(Nc1ccc2c(c1)OCCn1cc(N3C(=O)OCC3C(F)F)nc1-2)C(N)=O
IC50 (second compound 0.00316 µM): 285 nM | IC50 (second compound 0.01 µM): 455 nM | IC50 (second compound 0.0316 µM): 223 nM | IC50 (second compound 0.1 µM): < 31.6 nM | IC50 (second compound 0.316 µM): < 31.6 nM | IC50 (second compound 1 µM): < 31.6 nM | viability, T/C [1]: 82.8% | viability, T/C [2]: 69.4% | viability, T/C [3]: 51.2% | viability, T/C [4]: 28.9% | viability, T/C [5]: 10.6% | viability, T/C [6]: 87.3% | viability, T/C [7]: 88.9% | viability, T/C [8]: 90.2% | viability, T/C [9]: 52.5% | viability, T/C [10]: 27.2% | viability, T/C [11]: 10.3% | viability, T/C [12]: 96.1% | viability, T/C [13]: 67% | viability, T/C [14]: 63.6% | viability, T/C [15]: 43.2% | viability, T/C [16]: 21.7% | viability, T/C [17]: 8.53% | viability, T/C [18]: 64.1% | viability, T/C [19]: 43.8% | viability, T/C [20]: 44% | viability, T/C [21]: 30.7% | viability, T/C [22]: 15.2% | viability, T/C [23]: 7.17% | viability, T/C [24]: 51.4% | viability, T/C [25]: 23.5% | viability, T/C [26]: 25.2% | viability, T/C [27]: 18.6% | viability, T/C [28]: 11% | viability, T/C [29]: 5.52% | viability, T/C [30]: 21.4% | viability, T/C [31]: 13.5% | viability, T/C [32]: 12.6% | viability, T/C [33]: 11.8% | viability, T/C [34]: 8.52% | viability, T/C [35]: 5.53% | viability, T/C [36]: 13.3%
